Source: ChEMBL document CHEMBL1143693, “Cancer chemopreventive effects of cycloartane-type and related triterpenoids in in vitro and in vivo models” (J Nat Prod, 2007)

What was measured:
[1] = Scavenging activity against NO generation in human Chang liver cells assessed as inhibition of NOR1-activation at 350 nM relative to NOR1; format: functional
[2] = system: Human gammaherpesvirus 4; assay: Inhibition of TPA-induced Epstein-Barr virus early antigen activation assessed as EBV-EA induction in Raji cells at 3.2 nM after 48 hrs relative to TPA; values are per cent of control; conditions: human gammaherpesvirus 4, Raji
[3] = system: Human gammaherpesvirus 4; assay: Inhibition of TPA-induced Epstein-Barr virus early antigen activation assessed as EBV-EA induction in Raji cells at 0.32 nM after 48 hrs relative to TPA; values are per cent of control; conditions: human gammaherpesvirus 4, Raji
[4] = system: Human gammaherpesvirus 4; assay: Inhibition of TPA-induced Epstein-Barr virus early antigen activation assessed as EBV-EA induction in Raji cells at 32 nM after 48 hrs relative to TPA; values are per cent of control; conditions: human gammaherpesvirus 4, Raji
[5] = system: Raji; assay: Cell viability of Raji cells at 320 nM; format: functional, Homo sapiens
[6] = system: Human gammaherpesvirus 4; assay: Inhibition of TPA-induced Epstein-Barr virus early antigen activation assessed as EBV-EA induction in Raji cells at 320 nM after 48 hrs relative to TPA; values are per cent of control; conditions: human gammaherpesvirus 4, Raji
[7] = system: Human gammaherpesvirus 4; assay: Inhibition of TPA-induced Epstein-Barr virus early antigen activation in Raji cells after 48 hrs; format: functional, organism-based; conditions: human gammaherpesvirus 4, Raji

Structure (SMILES)	Activity [1]	level, % of control at 0.0032 µM [2] [%]	level, % of control at 0.00032 µM [3] [%]	level, % of control at 0.032 µM [4] [%]	Activity [5] [%]	level, % of control at 0.32 µM [6] [%]	IC50 [7] [nM]
CC(C)CCC[C@@H](C)C1=CC[C@@]2(C)[C@@H]3CC[C@H]4C(C)(C)[C@@H](O)CC[C@@]45C[C@@]35CC[C@]12C	1.6	72.6	96.5	32.1	70	0	10.1
C=C(CC[C@@H](C)[C@H]1CC[C@@]2(C)[C@@H]3CC[C@H]4C(C)(C)[C@@H](OC(=O)/C=C/c5ccc(O)c(OC)c5)CC[C@@]45C[C@@]35CC[C@]12C)C(C)C	1.8	82	100	54.7	70	17.6	15.8
C=C(C)[C@H](O)CC[C@@H](C)[C@H]1CC[C@@]2(C)[C@@H]3CC[C@H]4C(C)(C)[C@@H](O)CC[C@@]45C[C@@]35CC[C@]12C	2	57.8	84.4	15	70	0	6.4
CC(C)=CCC[C@@H](C)[C@H]1CC[C@@]2(C)[C@@H]3CC[C@H]4C(C)(C)C(=O)CC[C@@]45C[C@@]35CC[C@]12C [CYCLOARTENONE]	1.5	71.3	92.6	24.6	70	2.3	8.8
C=C(CC[C@@H](C)[C@H]1CC[C@@]2(C)[C@@H]3CC[C@H]4[C@H](C)[C@@H](OC(C)=O)CC[C@@]45C[C@@]35CC[C@]12C)C(C)C [CYCLOEUCALENOL ACETATE]	1.5	73.5	96.2	32.4	70	0	10.1
C=C(CC[C@@H](C)[C@H]1CC[C@@]2(C)[C@@H]3CC[C@H]4[C@@H](C)[C@@H](O)CC[C@@]45C[C@@]35CC[C@]12C)C(C)C	1.5	72	95.1	29.9	70	0	9.5
C=C(CC[C@@H](C)[C@H]1CC[C@@]2(C)[C@@H]3CC[C@H]4[C@H](C)[C@@H](OC(=O)/C=C/c5ccc(O)c(OC)c5)CC[C@@]45C[C@@]35CC[C@]12C)C(C)C [CYCLOEUCALENOL FERULATE]	1.5	81.5	100	53.2	70	14.2	15.5
C=C(CC[C@@H](C)[C@H]1CC[C@@]2(C)[C@@H]3CC[C@H]4[C@H](C)[C@@H](O)CC[C@@]45C[C@@]35CC[C@]12C)C(C)C [CYCLOEUCALENOL]	1.7	68.1	94.8	26.5	70	0	8.9
C=C(CC[C@@H](C)[C@H]1CC[C@@]2(C)[C@@H]3CC[C@H]4[C@H](C)C(=O)CC[C@@]45C[C@@]35CC[C@]12C)C(C)C [CYCLOEUCALENONE]	1.5	74	96.2	33.4	70	0	10.3
C=C(C)[C@@H](C)CC[C@@H](C)[C@H]1CC[C@@]2(C)[C@@H]3CC[C@H]4[C@H](C)[C@H](O)CC[C@@]45C[C@@]35CC[C@]12C	1.8	71.5	94.5	29.3	70	0	9.3
C=C(CC[C@@H](C)[C@H]1CC[C@@]2(C)[C@@H]3CC[C@H]4C(C)(C)[C@@H](O)CC[C@@]45C[C@@]35CC[C@]12C)C(C)C	1.7	68.1	91.4	23.2	70	0	8.8
CC(C)=CCC[C@@H](C)[C@H]1CC[C@@]2(C)[C@@H]3CC[C@H]4C(C)(C)[C@H](O)CC[C@@]45C[C@@]35CC[C@]12C	1.8	70.3	93.7	29.7	70	0	9.2
CC(C)C(=O)CC[C@@H](C)[C@H]1CC[C@@]2(C)[C@@H]3CC[C@H]4C(C)(C)[C@@H](O)CC[C@@]45C[C@@]35CC[C@]12C	2	62.7	90.5	19.8	70	0	8.1
C=C(CC[C@@H](C)[C@H]1CC[C@@]2(C)[C@@H]3CC[C@H]4[C@@H](C)C(=O)CC[C@@]45C[C@@]35CC[C@]12C)C(C)C	1.5	73.6	95.1	32.7	70	0	10.2
CC(C)=CCC[C@@H](C)[C@H]1CC[C@@]2(C)[C@@H]3CC[C@H]4C(C)(C)[C@@H](O)CC[C@@]45C[C@@]35CC[C@]12C [CYCLOARTENOL]	1.6	69.9	93.5	25.8	70	0	8.8
C[C@H](C/C=C/C(C)(C)O)[C@H]1CC[C@@]2(C)[C@@H]3CC[C@H]4C(C)(C)C(=O)CC[C@@]45C[C@@]35CC[C@]12C	1.9	67.2	90.1	20	70	0	8.6
C=C(CC[C@@H](C)[C@H]1CC[C@@]2(C)[C@@H]3CC[C@H]4C[C@@H](OC(C)=O)CC[C@@]45C[C@@]35CC[C@]12C)C(C)C	1.5	73.1	96.3	31.4	70	0	10
CC(C)=CCC[C@@H](C)C1=CC[C@@]2(C)[C@@H]3CC[C@H]4C(C)(C)[C@@H](O)CC[C@@]45C[C@@]35CC[C@]12C [CIMICIFUGENOL]	1.8	72.6	93.8	26.8	70	0	9
C=C(CC[C@@H](C)[C@H]1CC[C@@]2(C)[C@@H]3CC[C@H]4[C@H](C)[C@H](O)CC[C@@]45C[C@@]35CC[C@]12C)C(C)C	1.6	73.1	95.9	30.5	70	0	9.4
